In patent US20150274719A1, “AMINO-SUBSTITUTED IMIDAZO[1,2-A]PYRIDINECARBOXAMIDES AND THEIR USE” (BAYER PHARMA AKTIENGESELLSCHAFT, priority 2012, published 2015):

Target: T1, recombinant guanylate cyclase reporter cell line (Rattus norvegicus, UniProt P19686+P20595)
T1 construct: expressed in transfected cells; host or cells: recombinant reporter cell line
T1 sequence (P19686 1-690): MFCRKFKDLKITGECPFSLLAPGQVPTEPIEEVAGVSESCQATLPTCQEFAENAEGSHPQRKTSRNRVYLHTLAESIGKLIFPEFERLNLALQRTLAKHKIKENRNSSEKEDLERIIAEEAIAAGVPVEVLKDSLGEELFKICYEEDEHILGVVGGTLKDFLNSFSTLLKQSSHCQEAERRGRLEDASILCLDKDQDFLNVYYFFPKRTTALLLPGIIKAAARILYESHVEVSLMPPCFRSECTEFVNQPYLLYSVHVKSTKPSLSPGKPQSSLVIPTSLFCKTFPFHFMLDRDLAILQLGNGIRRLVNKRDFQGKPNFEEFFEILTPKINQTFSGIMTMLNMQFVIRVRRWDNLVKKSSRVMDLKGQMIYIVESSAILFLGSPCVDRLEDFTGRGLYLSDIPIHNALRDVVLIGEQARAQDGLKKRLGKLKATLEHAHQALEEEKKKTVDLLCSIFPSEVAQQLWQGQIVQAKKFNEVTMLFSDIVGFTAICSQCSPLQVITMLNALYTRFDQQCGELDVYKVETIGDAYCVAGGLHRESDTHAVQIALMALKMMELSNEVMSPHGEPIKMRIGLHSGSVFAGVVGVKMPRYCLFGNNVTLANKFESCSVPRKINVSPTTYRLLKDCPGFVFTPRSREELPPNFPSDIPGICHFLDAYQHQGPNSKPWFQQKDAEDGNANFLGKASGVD
T1 sequence (P20595 1-619): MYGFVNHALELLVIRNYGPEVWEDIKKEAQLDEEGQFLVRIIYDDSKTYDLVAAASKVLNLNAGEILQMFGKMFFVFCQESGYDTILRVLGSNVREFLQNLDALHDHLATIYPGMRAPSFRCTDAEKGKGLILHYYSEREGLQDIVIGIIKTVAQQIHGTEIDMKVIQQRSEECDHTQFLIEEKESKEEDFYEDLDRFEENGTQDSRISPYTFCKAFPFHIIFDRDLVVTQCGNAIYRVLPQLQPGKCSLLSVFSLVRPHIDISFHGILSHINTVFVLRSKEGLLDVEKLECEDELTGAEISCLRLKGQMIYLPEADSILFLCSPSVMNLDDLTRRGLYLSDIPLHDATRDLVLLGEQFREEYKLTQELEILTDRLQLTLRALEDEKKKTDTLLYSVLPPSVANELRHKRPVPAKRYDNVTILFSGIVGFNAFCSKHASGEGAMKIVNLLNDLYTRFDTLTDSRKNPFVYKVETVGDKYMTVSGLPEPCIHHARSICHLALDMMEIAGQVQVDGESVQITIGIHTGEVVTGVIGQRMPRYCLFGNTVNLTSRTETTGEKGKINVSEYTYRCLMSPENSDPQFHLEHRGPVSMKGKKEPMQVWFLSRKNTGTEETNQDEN
Assay: Action on recombinant guanylate cyclase reporter cell line
Type: cell-based
Details: in some cases mean values from individual determinations
Method: B-2. Action on Recombinant Guanylate Cyclase Reporter Cell Line
The cellular action of the compounds according to the invention is determined on a recombinant guanylate cyclase reporter cell line, as described in F. Wunder et al., Anal. Biochem. 339, 104-112 (2005).
Representative MEC values (MEC=minimal effective concentration) for the compounds according to the invention are shown in the following table (in some cases as mean values obtained from individual determinations): […]

Row | SMILES | MEC (minimal effective concentration) [µM]
1 | Cc1nc2c(OCc3c(F)cccc3F)cc(Cl)cn2c1C(=O)NCC(N)CC(F)(F)F (racemic) [Example 147, rac-N-(2-amino-4,4,4-trifluorobutyl)-6-chloro-8-[(2,6-difluorobenzyl)oxy]-2-methylimidazo[1,2-a]pyridine-3-carboxamide] | 0.30
2 | Cc1nc2c(OCc3c(F)cccc3F)cccn2c1C(=O)NCC(N)COC(C)C (racemic) [Example 205, rac-N-(2-Amino-3-isopropoxypropyl)-8-[(2,6-difluorobenzyl)oxy]-2-methylimidazo[1,2-a]-pyridine-3-carboxamide] | 0.30
3 | Cc1nc2c(OCc3c(F)cccc3F)cccn2c1C(=O)NCC(N)C(F)(F)F (racemic) [Example 207, rac-N-(2-Amino-3,3,3-trifluoropropyl)-8-[(2,6-difluorobenzyl)oxy]-2-methylimidazo[1,2-a]-pyridine-3-carboxamide] | 1.00
4 | Cc1nc2c(OCc3c(F)cccc3F)cc(Cl)cn2c1C(=O)NCC(N)COC(C)C (racemic) [Example 217, rac-N-(2-Amino-3-isopropoxypropyl)-6-chloro-8-[(2,6-difluorobenzyl)oxy]-2-methylimidazo[1,2-a]pyridine-3-carboxamide] | 1.00
5 | Cc1nc2c(OCc3c(F)cccc3F)cc(Cl)cn2c1C(=O)NCC(C)(N)CC(C)C (racemic) [Example 225, rac-N-(2-Amino-2,4-dimethylpentyl)-6-chloro-8-[(2,6-difluorobenzyl)oxy]-2-methylimidazo[1,2-a]pyridine-3-carboxamide] | 0.30
6 | Cc1nc2c(OCc3c(F)cccc3F)cccn2c1C(=O)NCC(N)C(F)(F)C(F)F (racemic) [Example 230, rac-N-(2-Amino-3,3,4,4-tetrafluorobutyl)-8-[(2,6-difluorobenzyl)oxy]-2-methylimidazo[1,2-a]-pyridine-3-carboxamide] | 1.00
7 | CCCC(C)(N)CNC(=O)c1c(C)nc2c(OCc3c(F)cccc3F)cc(C)cn12 (racemic) [Example 232, rac-N-(2-Amino-2-methylpentyl)-8-[(2,6-difluorobenzyl)oxy]-2,6-dimethylimidazo[1,2-a]pyridine-3-carboxamide] | 0.10
8 | Cc1cc(OCCC(C)C)c2nc(C)c(C(=O)NCC(C)(N)CC(C)C)n2c1 (racemic) [Example 249, rac-N-(2-Amino-2,4-dimethylpentyl)-2,6-dimethyl-8-(3-methylbutoxyl)imidazo[1,2-a]pyridine-3-carboxamide] | 1.00
9 | CCC(C)(N)CNC(=O)c1c(C)nc2c(OCc3c(F)cccc3F)cccn12 (racemic) [Example 254, rac-N-(2-Amino-2-methylbutyl)-8-[(2,6-difluorobenzyl)oxy]-2-methylimidazo[1,2-a]pyridine-3-carboxamide] | 0.30
10 | Cc1cc(OCCC(C(F)(F)F)C(F)(F)F)c2nc(C)c(C(=O)NCC(C)(N)CC(C)C)n2c1 (racemic) [Example 258, rac-N-(2-Amino-2,4-dimethylpentyl)-2,6-dimethyl-8-[4,4,4-trifluoro-3-(trifluoromethyl)butoxy]-imidazo[1,2-a]pyridine-3-carboxamide] | 1.00

The next lines start with the values.

Row | MEC (minimal effective concentration) [µM] | SMILES
11 | 1.00 | Cc1nc2c(OCc3c(F)cccc3F)cccn2c1C(=O)NCC(C(C)C)N(C)C (racemic) [Example 142, rac-8-[(2,6-difluorobenzyl)oxy]-N-[2-(dimethyl-amino)-3-methylbutyl]-2-methylimidazo[1,2-a]-pyridine-3-carboxamide]
12 | 0.30 | CCC(C)(N)CNC(=O)c1c(C)nc2c(OCc3c(F)cccc3F)cc(Cl)cn12 (racemic) [Example 157, rac-N-(2-amino-2-methylbutyl)-6-chloro-8-[(2,6-difluorobenzyl)oxy]-2-methylimidazo[1,2-a]-pyridine-3-carboxamide]
13 | 0.30 | COCC(C)(N)CNC(=O)c1c(C)nc2c(OCc3c(F)cccc3F)cc(Cl)cn12 (racemic) [Example 159, rac-N-(2-amino-3-methoxy-2-methylpropyl)-6-chloro-8-[(2,6-difluorobenzyl)oxy]-2-methylimidazo[1,2-a]pyridine-3-carboxamide]
14 | 0.30 | COCC(C)(N)CNC(=O)c1c(C)nc2c(OCc3c(F)cccc3F)cc(C)cn12 (racemic) [Example 166, rac-N-(2-amino-3-methoxy-2-methylpropyl)-8-[(2,6-difluorobenzyl)oxy]-2,6-dimethylimidazo[1,2-a]pyridine-3-carboxamide]
15 | 0.10 | Cc1nc2c(OCc3c(F)cccc3F)cccn2c1C(=O)NCC(C)(N)CC(C)C (racemic) [Example 202, rac-N-(2-Amino-2,4-dimethylpentyl)-8-[(2,6-difluorobenzyl)oxy]-2-methylimidazo[1,2-a]pyridine-3-carboxamide]
16 | 0.30 | Cc1cc(OCc2c(F)cccc2F)c2nc(C)c(C(=O)NCC(N)COC(C)C)n2c1 (racemic) [Example 206, rac-N-(2-Amino-3-isopropoxypropyl)-8-[(2,6-difluorobenzyl)oxy]-2,6-dimethylimidazo[1,2-a]-pyridine-3-carboxamide]
17 | 1.00 | COCC(C)(N)CNC(=O)c1c(C)nc2c(OCc3c(F)cccc3F)cccn12 (racemic) [Example 213, rac-N-(2-Amino-3-methoxy-2-methylpropyl)-8-[(2,6-difluorobenzyl)oxy]-2-methylimidazo[1,2-a]-pyridine-3-carboxamide]
18 | 0.10 | Cc1cc(OCc2c(F)cccc2F)c2nc(C)c(C(=O)NCC(C)(N)CC(C)C)n2c1 (racemic) [Example 218, rac-N-(2-Amino-2,4-dimethylpentyl)-8-[(2,6-difluorobenzyl)oxy]-2,6-dimethylimidazo[1,2-a]-pyridine-3-carboxamide]
19 | 0.30 | Cc1cc(OCc2c(F)cccc2F)c2nc(C)c(C(=O)NCC3CCc4ccccc4N3)n2c1 (racemic) [Example 235, rac-8-[(2,6-Difluorobenzyl)oxy]-2,6-dimethyl-N-(1,2,3,4-tetrahydroquinolin-2-ylmethyl)imidazo-[1,2-a]pyridine-3-carboxamide]
20 | 0.30 | Cc1nc2c(OCc3c(F)cccc3F)cc(Cl)cn2c1C(=O)NCC(C)(N)C(F)(F)F (racemic) [Example 236, rac-N-(2-Amino-3,3,3-trifluoro-2-methylpropyl)-6-chloro-8-[(2,6-difluorobenzyl)oxy]-2-methyl-imidazo[1,2-a]pyridine-3-carboxamide]
21 | 0.30 | Cc1cc(OCc2c(F)cccc2F)c2nc(C)c(C(=O)NCC(C)(N)C(F)(F)F)n2c1 (racemic) [Example 239, rac-N-(2-Amino-3,3,3-trifluoro-2-methylpropyl)-8-[(2,6-difluorobenzyl)oxy]-2,6-dimethyl-imidazo[1,2-a]pyridine-3-carboxamide]
22 | 0.30 | CCCC(C)(N)CNC(=O)c1c(C)nc2c(OCc3c(F)cccc3F)cc(Cl)cn12 (racemic) [Example 244, rac-N-(2-Amino-2-methylpentyl)-6-chloro-8-[(2,6-difluorobenzyl)oxy]-2-methylimidazo[1,2-a]-pyridine-3-carboxamide]
23 | 1.00 | Cc1nc2c(OCc3c(F)cccc3F)cccn2c1C(=O)NCC1CCc2ccccc2N1 (racemic) [Example 250, rac-8-[(2,6-Difluorobenzyl)oxy]-2-methyl-N-(1,2,3,4-tetrahydroquinolin-2-ylmethyl)imidazo[1,2-a]pyridine-3-carboxamide]
